# ChEMBL document CHEMBL4706634, “PEGylated and Acylated Elabela Analogues Show Enhanced Receptor Binding, Prolonged Stability, and Remedy of Acute Kidney Injury” (J Med Chem, 2020)
# Active and inactive are the calls of the source. The calls are words filed in the database; no cut-off is given here.
# Key:
# Mus musculus [1] = experiment: Reno-protective activity in C57BL/6 mouse model of renal I/R injury assessed as suppression of reduction in cleaved-caspase-8 levels dosed intraperitoneally twice per day for 3 days from day of I/R injury to end of experiment by Western blot analysis; type: functional, organism-based; conditions: time 3.0 day
# Mus musculus [2] = experiment: Reno-protective activity in C57BL/6 mouse model of renal I/R injury assessed as suppression of renal tubular damage dosed intraperitoneally twice per day for 3 days starting from 6 to 24 hrs post I/R operation by hematoxylin and eosin staining based assay; type: functional, organism-based; conditions: time 3.0 day
# NRK-52E [3] = experiment: Cytoprotective activity in rat NRK-52E cells assessed as reduction in cisplatin-induced cell death at 300 pM incubated for 24 hrs; type: functional, cell-based
# Mus musculus [4] = experiment: Reno-protective activity in C57BL/6 mouse model of renal I/R injury assessed as reduction neutrophil infiltration dosed intraperitoneally twice per day for 3 days starting from 6 to 24 hrs post I/R operation; type: functional, organism-based; conditions: time 3.0 day
# [5] = Stability in mouse plasma assessed as intact peptide level at 1.56 mM incubated for 1 hr by RP-HPLC analysis; type: ADME, cell-free; conditions: read-out: Stabilty
# Mus musculus [6] = experiment: Reno-protective activity in C57BL/6 mouse model of renal I/R injury assessed as reduction lymphocyte infiltration dosed intraperitoneally twice per day for 3 days starting from 6 to 24 hrs post I/R operation; type: functional, organism-based; conditions: time 3.0 day
# Mus musculus [7] = experiment: Reno-protective activity in C57BL/6 mouse model of renal I/R injury assessed as reduction in cleaved-caspase-3 levels dosed intraperitoneally twice per day for 3 days from day of I/R injury to end of experiment by Western blot analysis; type: functional, organism-based; conditions: time 3.0 day
# Mus musculus [8] = experiment: Reno-protective activity in C57BL/6 mouse model of renal I/R injury assessed as reduction in fibrosis by measuring collagen deposition dosed intraperitoneally twice per day for 3 days from day of I/R injury to end of experiment by Masson staining based assay; type: functional, organism-based; conditions: time 3.0 day
# Mus musculus [9] = experiment: Reno-protective activity in C57BL/6 mouse model of renal I/R injury assessed as reduction in serum BUN level dosed intraperitoneally twice per day for 3 days from day of I/R injury to end of experiment; type: functional, organism-based; conditions: time 3.0 day
# Mus musculus [10] = experiment: Reno-protective activity in C57BL/6 mouse model of renal I/R injury assessed as reduction in tubular epithelial cell apoptosis dosed intraperitoneally twice per day for 3 days starting from 6 to 24 hrs post I/R operation by TUNEL assay; type: functional, organism-based; conditions: time 3.0 day
# [11] = Stability in mouse plasma assessed as half life at 1.56 mM by RP-HPLC analysis; type: ADME, cell-free
# Mus musculus [12] = experiment: Reno-protective activity in C57BL/6 mouse model of renal I/R injury assessed as reduction in serum creatinine level dosed intraperitoneally twice per day for 3 days from day of I/R injury to end of experiment; type: functional, organism-based; conditions: time 3.0 day
# NRK-52E [13] = experiment: Cytoprotective activity in rat NRK-52E cells assessed as reduction in H/R-injury induced cell death at 300 pM incubated for 24 hrs; type: functional, cell-based
# Mus musculus [14] = experiment: Reno-protective activity in C57BL/6 mouse model of renal I/R injury assessed as reduction in p-MLK levels dosed intraperitoneally twice per day for 3 days from day of I/R injury to end of experiment by Western blot analysis; type: functional, organism-based; conditions: time 3.0 day
# Mus musculus [15] = experiment: Reno-protective activity in C57BL/6 mouse model of renal I/R injury assessed as suppression of renal dysfunction dosed intraperitoneally twice per day for 3 days starting from 6 hrs post I/R operation by hematoxylin and eosin staining based assay; type: functional, organism-based; conditions: time 3.0 day
# Mus musculus [16] = experiment: Reno-protective activity in C57BL/6 mouse model of renal I/R injury assessed as reduction neutrophil infiltration dosed intraperitoneally twice per day for 3 days from day of I/R injury to end of experiment; type: functional, organism-based; conditions: time 3.0 day
# Mus musculus [17] = experiment: Reno-protective activity in C57BL/6 mouse model of renal I/R injury assessed as reduction TNF-alpha mRNA levels dosed intraperitoneally twice per day for 3 days from day of I/R injury to end of experiment by qPCR analysis; type: functional, organism-based; conditions: time 3.0 day
# Mus musculus [18] = experiment: Reno-protective activity in C57BL/6 mouse model of renal I/R injury assessed as improvement in pathologies in injured kidneys dosed intraperitoneally twice per day for 3 days from day of I/R injury to end of experiment by hematoxylin and eosin staining based assay; type: functional, organism-based; conditions: time 3.0 day
# Mus musculus [19] = experiment: Reno-protective activity in C57BL/6 mouse model of renal I/R injury assessed as reduction in fibrosis by measuring collagen deposition dosed intraperitoneally twice per day for 3 days starting from 6 to 24 hrs post I/R operation by Masson staining based assay; type: functional, organism-based; conditions: time 3.0 day
# Mus musculus [20] = experiment: Reno-protective activity in C57BL/6 mouse model of renal I/R injury assessed as reduction Il6 mRNA levels dosed intraperitoneally twice per day for 3 days from day of I/R injury to end of experiment by qPCR analysis; type: functional, organism-based; conditions: time 3.0 day
# [21] = Stability in human plasma assessed as half life at 1.56 mM by RP-HPLC analysis; type: ADME, cell-free
# Mus musculus [22] = experiment: Reno-protective activity in C57BL/6 mouse model of renal I/R injury assessed as reduction in apoptosis by measuring increase in number of TUNEL+ cells dosed intraperitoneally twice per day for 3 days from day of I/R injury to end of experiment by TUNEL assay; type: functional, organism-based; conditions: time 3.0 day
# [23] = Half life in mouse at 3 umol/kg, iv by analytical RP-HPLC analysis; type: ADME, organism-based; conditions: in vivo, dose 3 µmol/kg
# Mus musculus [24] = experiment: Reno-protective activity in C57BL/6 mouse model of renal I/R injury assessed as reduction Kim1 mRNA expression dosed intraperitoneally twice per day for 3 days starting from 6 to 24 hrs post I/R operation by qPCR analysis; type: functional, organism-based; conditions: time 3.0 day
# Mus musculus [25] = experiment: Reno-protective activity in C57BL/6 mouse model of renal I/R injury assessed as reduction in tubular epithelial cell necroptosis dosed intraperitoneally twice per day for 3 days starting from 6 to 24 hrs post I/R operation by TUNEL assay; type: functional, organism-based; conditions: time 3.0 day
# Mus musculus [26] = experiment: Reno-protective activity in C57BL/6 mouse model of renal I/R injury assessed as reduction Kim1 mRNA levels dosed intraperitoneally twice per day for 3 days from day of I/R injury to end of experiment by qPCR analysis; type: functional, organism-based; conditions: time 3.0 day
# Mus musculus [27] = experiment: Reno-protective activity in C57BL/6 mouse model of renal I/R injury assessed as reduction lymphocyte infiltration dosed intraperitoneally twice per day for 3 days from day of I/R injury to end of experiment; type: functional, organism-based; conditions: time 3.0 day
# Mus musculus [28] = experiment: Reno-protective activity in C57BL/6 mouse model of renal I/R injury assessed as reduction N-gal mRNA levels dosed intraperitoneally twice per day for 3 days from day of I/R injury to end of experiment by qPCR analysis; type: functional, organism-based; conditions: time 3.0 day
# Apelin receptor = target: T1, Apelin receptor (Rattus norvegicus, UniProt Q9JHG3); experiment: Agonist activity at APJ receptor in rat NRK-52E cells assessed as effect on cAMP accumulation incubated for 1 hr by cAMP-Glo assay; type: functional, cell-based
# T1 sequence (Q9JHG3 whole entry): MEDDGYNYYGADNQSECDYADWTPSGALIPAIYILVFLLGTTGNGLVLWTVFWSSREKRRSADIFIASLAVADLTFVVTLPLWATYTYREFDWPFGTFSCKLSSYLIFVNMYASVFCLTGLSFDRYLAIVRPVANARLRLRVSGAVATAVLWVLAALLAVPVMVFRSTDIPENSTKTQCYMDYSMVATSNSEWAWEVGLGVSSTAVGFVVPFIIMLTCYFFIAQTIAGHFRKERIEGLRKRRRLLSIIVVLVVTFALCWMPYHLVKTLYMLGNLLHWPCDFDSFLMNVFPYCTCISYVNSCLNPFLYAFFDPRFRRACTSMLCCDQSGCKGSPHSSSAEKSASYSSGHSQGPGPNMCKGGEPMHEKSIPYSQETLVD
Structure (SMILES),Activity (Mus musculus [1]),Activity (NRK-52E [3]),"remaining at 1 h, 1560 µM [5] [%]",Activity (Mus musculus [7]),Activity (Mus musculus [8]),Activity (Mus musculus [9]),half-life at 1560 µM [11] [min],Activity (NRK-52E [13]),Activity (Mus musculus [14]),Activity (Mus musculus [16]),Activity (Mus musculus [18]),half-life at 1560 µM [21] [min],Activity (Mus musculus [22]),half-life [23] [min],Activity (Mus musculus [27]),Activity (Mus musculus [28]),EC50 (Apelin receptor) [nM],other results
CCCCCCCCCCCCCCCC(=O)N[C@@H](CCC(=O)N[C@@H](CS)C(=O)N[C@@H](CCSC)C(=O)N1CCC[C@H]1C(=O)N[C@@H](CC(C)C)C(=O)N[C@@H](Cc1c[nH]cn1)C(=O)N[C@@H](CO)C(=O)N[C@@H](CCCNC(=N)N)C(=O)N[C@H](C(=O)N1CCC[C@H]1C(=O)N[C@@H](Cc1ccccc1)C(=O)N1CCC[C@H]1C(N)=O)C(C)C)C(=O)O,Active,Active,63.6,Active,Active,Active,87,Active,Active,Active,Active,118,Active,1350,Active,Active,,Activity (Mus musculus [2]): Active; Activity (Mus musculus [4]): Active; Activity (Mus musculus [6]): Active; Activity (Mus musculus [10]): Active; Activity (Mus musculus [12]): Active; Activity (Mus musculus [15]): Active; Activity (Mus musculus [17]): Active; Activity (Mus musculus [19]): Active; Activity (Mus musculus [20]): Active; Activity (Mus musculus [24]): Active; Activity (Mus musculus [25]): Active; Activity (Mus musculus [26]): Active
CCCCCCCCCCCCCCCC(=O)N[C@@H](CCC(=O)NCCCC[C@H](N)C(=O)N[C@@H](CS)C(=O)N[C@@H](CCSC)C(=O)N1CCC[C@H]1C(=O)N[C@@H](CC(C)C)C(=O)N[C@@H](Cc1c[nH]cn1)C(=O)N[C@@H](CO)C(=O)N[C@@H](CCCNC(=N)N)C(=O)N[C@H](C(=O)N1CCC[C@H]1C(=O)N[C@@H](Cc1ccccc1)C(=O)N1CCC[C@H]1C(N)=O)C(C)C)C(=O)O,Active,,25.8,Active,Active,,30,,Active,Active,Active,37.8,Active,,Active,,7.98,
CSCC[C@H](NC(=O)[C@H](CS)NC(=O)[C@H](CCCNC(=N)N)NC(=O)[C@H](CCCNC(=N)N)NC(=O)[C@@H]1CCC(=O)N1)C(=O)N1CCC[C@H]1C(=O)N[C@@H](CC(C)C)C(=O)N[C@@H](Cc1c[nH]cn1)C(=O)N[C@@H](CO)C(=O)N[C@@H](CCCNC(=N)N)C(=O)N[C@H](C(=O)N1CCC[C@H]1C(=O)N[C@@H](Cc1ccccc1)C(=O)N1CCC[C@H]1C(N)=O)C(C)C,,,,,,,17.4,,,,,,,,,,,
CSCC[C@H](NC(=O)[C@@H](N)CS)C(=O)N1CCC[C@H]1C(=O)N[C@@H](CC(C)C)C(=O)N[C@@H](Cc1c[nH]cn1)C(=O)N[C@@H](CO)C(=O)N[C@@H](CCCNC(=N)N)C(=O)N[C@H](C(=O)N1CCC[C@H]1C(=O)N[C@@H](Cc1ccccc1)C(=O)N1CCC[C@H]1C(N)=O)C(C)C,Active,Active,19,Active,Active,,22.8,Active,Active,Active,Active,23.4,Active,21,Active,,,
CCCCCCCCCCCCCCCC(=O)N[C@@H](CCC(=O)NCCCC[C@H](NC(=O)CCC(=O)N[C@@H](CS)C(=O)N[C@@H](CCSC)C(=O)N1CCC[C@H]1C(=O)N[C@@H](CC(C)C)C(=O)N[C@@H](Cc1c[nH]cn1)C(=O)N[C@@H](CO)C(=O)N[C@@H](CCCNC(=N)N)C(=O)N[C@H](C(=O)N1CCC[C@H]1C(=O)N[C@@H](Cc1ccccc1)C(=O)N1CCC[C@H]1C(N)=O)C(C)C)C(=O)N[C@@H](CS)C(=O)N[C@@H](CCSC)C(=O)N1CCC[C@H]1C(=O)N[C@@H](CC(C)C)C(=O)N[C@@H](Cc1c[nH]cn1)C(=O)N[C@@H](CO)C(=O)N[C@@H](CCCNC(=N)N)C(=O)N[C@H](C(=O)N1CCC[C@H]1C(=O)N[C@@H](Cc1ccccc1)C(=O)N1CCC[C@H]1C(N)=O)C(C)C)C(=O)O,,,75.9,,inactive,,305,,,inactive,inactive,> 1440,,,inactive,,9.48,
CSCC[C@H](NC(=O)[C@H](CS)NC(=O)CC[C@H](NC(=O)CCOCCOCCOCCOCCOCCOCCN)C(=O)O)C(=O)N1CCC[C@H]1C(=O)N[C@@H](CC(C)C)C(=O)N[C@@H](Cc1c[nH]cn1)C(=O)N[C@@H](CO)C(=O)N[C@@H](CCCNC(=N)N)C(=O)N[C@H](C(=O)N1CCC[C@H]1C(=O)N[C@@H](Cc1ccccc1)C(=O)N1CCC[C@H]1C(N)=O)C(C)C,Active,Active,38.7,Active,Active,Active,47.4,Active,Active,Active,Active,106,Active,,Active,Active,7.84,
